Laboratory results taken from patent US12414978B2, “Tyrosine inhibitors with immunosuppressive activity in human neonatal keratinocyte progenitors” (ESCAPE THERAPEUTICS, INC., priority 2019, dated 2025).
Square brackets hold non-standard residues; d marks the D form. Ends that are not written are not given here. Peptide text beside a SMILES is read from it. * marks the point of attachment. Palmitoyl = CCCCCCCCCCCCCCCC(=O)*

What was measured:
PHA-stimulated PBMC [1] = details: 0.1 millimolar; cited from earlier work
melanoblasts [2] = assay: Trypan blue cell viability after 7 days, melanoblasts; format: cell-based, human; details: relative to control (untreated cells)
Protocol: (§1) The effect of each of the decapeptides upon cell viability was also tested. In particular, cells were incubated with the decapeptide at various concentrations and then counted for viability relative to the control (untreated cells) using trypan blue. Cytotoxicity was measured according to the following formula: [1−(# of cells in control−# of live cells in test sample)/# of cells in control]×100 percent.

epidermal progenitors = assay: Trypan blue cell viability after 7 days, epidermal progenitors; format: cell-based, human; details: relative to control (untreated cells)
Protocol: as §1

fibroblasts [3] = assay: Trypan blue cell viability after 7 days, fibroblasts; format: cell-based, human; details: 50 μM, relative to control (untreated cells)
Protocol: as §1

fibroblasts [4] = assay: MTT cell proliferation, fibroblasts; format: cell-based, human
Protocol: (§2) Proliferation rates for three human cell lines (epidermal progenitors, melanoblasts, and fibroblasts) were determined using a TACS® MTT Cell Proliferation Kit. Cells were seeded at 2.5×10^4 per well in 96-well plates in a humidified atmosphere with 5 percent CO2 at 37 degrees Celsius. Twenty-four hours later, the decapeptides were added to the corresponding wells at varying concentrations and incubated for 72 hours. The remainder of the procedure was performed following the manufacturer's protocol.

melanoblasts [5] = assay: MTT cell proliferation, melanoblasts; format: cell-based, human
Protocol: as §2

[6] = tested on: human epidermal progenitors; assay: MTT cell proliferation, epidermal progenitors; format: cell-based
Protocol: Proliferation rates were determined using a TACS® MTT Cell Proliferation Kit (R&D systems, Minneapolis, MN). Cells were seeded at 2.5×10^4 per well in 96-well plates in a humidified atmosphere with 5 percent CO2 at 37 degrees Celsius. Twenty-four hours later, decapeptide-12 or oxyresveratrol were added to the corresponding wells at varying concentrations (0, 3, 10, 30, 100, 300, and 1000 micromolar), and cultures were then incubated for 72 hours. The remainder of the procedure was performed following the manufacturer's protocol.
as §2

[7] = tested on: IL-2 activated human NK cell cytotoxic killing of human K562 cells; assay: NK cytotoxic killing of K562 cells (CytoTox96); format: cell-based
Protocol: (§3) Cryopreserved human PBMCs were purchased from Astarte Biologics (Redmond, Washington, USA), activated with phytohemagglutinin (PHA), and proliferation assessed. Interleukin (IL)-2 activated human NK cell cytotoxic killing of human K562 cells was assessed using a CytoTox96 non-radioactive cytotoxicity assay kit (Promega). Protease inhibitor was added to the media to prevent degradation of decapeptide-12.
(§4) Three independent trials were performed for each experiment. Microsoft Excel (Seattle, Washington) was used to calculate means and standard errors and statistical significance was determined using unpaired analysis of variance or two-tailed student T-test. P values <0.05 were taken to be statistically significant.
The impact of decapeptide-12 on IL-2 primed NK-mediated cytotoxic killing of K562 cells, was also assessed.

PHA-stimulated PBMC [8] = assay: PHA-stimulated PBMC proliferation; format: cell-based, human; details: PHA 72 hours
Protocol: as §3, §4
The effects of decapeptide-12 and oxyresveratrol on PBMC proliferation rates after exposure to PHA for 72 hours, were explored.

Row | Compound | melanoblast viability after 7 days (melanoblasts [2]; 10 μM) [%] | epidermal progenitor viability after 7 days (epidermal progenitors; 10 μM) [%] | fibroblast proliferation rate after 72 hours (fibroblasts [4]; 3 μM) [%] | fibroblast proliferation rate after 72 hours (fibroblasts [4]; 10 μM) [%] | fibroblast proliferation rate after 72 hours (fibroblasts [4]; 30 μM) [%] | fibroblast proliferation rate after 72 hours (fibroblasts [4]; 50 μM) [%] | fibroblast proliferation rate after 72 hours (fibroblasts [4]; 100 μM) [%] | fibroblast proliferation rate after 72 hours (fibroblasts [4]; 300 μM) [%] | fibroblast proliferation rate after 72 hours (fibroblasts [4]; 500 μM) [%] | fibroblast proliferation rate after 72 hours (fibroblasts [4]; 1000 μM) [%] | melanoblast proliferation rate after 72 hours (melanoblasts [5]; 3 μM) [%] | melanoblast proliferation rate after 72 hours (melanoblasts [5]; 10 μM) [%] | melanoblast proliferation rate after 72 hours (melanoblasts [5]; 30 μM) [%] | melanoblast proliferation rate after 72 hours (melanoblasts [5]; 50 μM) [%] | melanoblast proliferation rate after 72 hours (melanoblasts [5]; 100 μM) [%] | melanoblast proliferation rate after 72 hours (melanoblasts [5]; 300 μM) [%] | melanoblast proliferation rate after 72 hours (melanoblasts [5]; 500 μM) [%] | melanoblast proliferation rate after 72 hours (melanoblasts [5]; 1000 μM) [%] | epidermal progenitor proliferation rate after 72 hours ([6]; 3 μM) [%] | epidermal progenitor proliferation rate after 72 hours ([6]; 10 μM) [%] | also measured
1 | Oc1ccc(C=Cc2cc(O)cc(O)c2)cc1 [resveratrol] | – | – | – | – | – | – | – | – | – | – | – | – | – | – | – | – | – | – | – | – | inhibition of PHA-induced proliferation (PHA-stimulated PBMC [1]): inhibits
2 | YRSRKYSSWY [P4, YRSRKYSSWY] | 99 ± 1 | 99 ± 1 | – | – | – | – | – | – | – | – | – | – | – | – | – | – | – | – | – | – | melanoblast viability after 7 days (melanoblasts [2]; 50 μM): 98 ± 1%; melanoblast viability after 7 days (melanoblasts [2]; 1000 μM): 94 ± 2%
3 | CCCCCCCCCCCCCCCC(=O)N[C@@H](Cc1ccc(O)cc1)C(=O)N[C@@H](CCCNC(=N)N)C(=O)N[C@@H](CO)C(=O)N[C@@H](CCCNC(=N)N)C(=O)N[C@@H](CCCCN)C(=O)N[C@@H](Cc1ccc(O)cc1)C(=O)N[C@@H](CO)C(=O)N[C@@H](CO)C(=O)N[C@@H](Cc1c[nH]c2ccccc12)C(=O)N[C@@H](Cc1ccc(O)cc1)C(N)=O [P4A, Palmitoyl-YRSRKYSSWY-amide] (Palmitoyl-YRSRKYSSWY-NH2) | 99 ± 1 | 99 ± 1 | 100 | 99 ± 1 | 98 ± 1 | 98 ± 1 | 97 ± 2 | 97 ± 2 | 96 ± 2 | 95 ± 2 | 100 | 100 | 99 ± 1 | 98 ± 1 | 97 ± 2 | 97 ± 2 | 96 ± 2 | 95 ± 2 | 99 ± 1 | 99 ± 1 | fibroblast viability after 7 days (fibroblasts [3]): 98 ± 1%; melanoblast viability after 7 days (melanoblasts [2]; 50 μM): 98 ± 1%; melanoblast viability after 7 days (melanoblasts [2]; 100 μM): 97 ± 2%; epidermal progenitor proliferation rate after 72 hours ([6]; 30 μM): 98 ± 1%; epidermal progenitor proliferation rate after 72 hours ([6]; 50 μM): 97 ± 1%; epidermal progenitor proliferation rate after 72 hours ([6]; 100 μM): 97 ± 2%; epidermal progenitor proliferation rate after 72 hours ([6]; 300 μM): 96 ± 2%; epidermal progenitor proliferation rate after 72 hours ([6]; 500 μM): 96 ± 2%; epidermal progenitor proliferation rate after 72 hours ([6]; 1000 μM): 94 ± 2%
4 | CCCCCCCCCCCCCCCC(=O)N[C@@H](Cc1ccc(O)cc1)C(=O)N[C@@H](CCCNC(=N)N)C(=O)N[C@@H](CO)C(=O)N[C@@H](CCCNC(=N)N)C(=O)N[C@@H](CCCCN)C(=O)N[C@H](Cc1ccc(O)cc1)C(=O)N[C@@H](CO)C(=O)N[C@@H](CO)C(=O)N[C@@H](Cc1c[nH]c2ccccc12)C(=O)N[C@@H](Cc1ccc(O)cc1)C(N)=O [P4B, Palmitoyl-YRSRK[*Y]SSWY-amide] (Palmitoyl-YRSRK[dY]SSWY-NH2) | – | 99 ± 1 | 100 | 99 ± 1 | 99 ± 1 | 99 ± 1 | 98 ± 2 | 97 ± 2 | 96 ± 2 | 96 ± 2 | 100 | 100 | 99 ± 1 | 98 ± 1 | 97 ± 2 | 96 ± 2 | 95 ± 2 | 94 ± 2 | 99 ± 1 | 99 ± 1 | epidermal progenitor viability after 7 days (epidermal progenitors; 50 μM): 98 ± 1%; epidermal progenitor viability after 7 days (epidermal progenitors; 100 μM): 97 ± 1%; epidermal progenitor proliferation rate after 72 hours ([6]; 30 μM): 98 ± 1%; epidermal progenitor proliferation rate after 72 hours ([6]; 50 μM): 98 ± 1%; epidermal progenitor proliferation rate after 72 hours ([6]; 100 μM): 97 ± 1%; epidermal progenitor proliferation rate after 72 hours ([6]; 300 μM): 97 ± 1%; epidermal progenitor proliferation rate after 72 hours ([6]; 500 μM): 95 ± 2%; epidermal progenitor proliferation rate after 72 hours ([6]; 1000 μM): 94 ± 2%
5 | Ac-YRSRKYSSWY-NH2 [P4C, Acetyl-YRSRKYSSWY-amide] | 99 ± 1 | 99 ± 1 | 100 | 99 ± 1 | 99 ± 1 | 99 ± 1 | 98 ± 2 | 97 ± 2 | 96 ± 2 | 96 ± 2 | 100 | 100 | 99 ± 1 | 98 ± 1 | 97 ± 2 | 96 ± 3 | 95 ± 2 | 95 ± 2 | 99 ± 1 | 99 ± 1 | melanoblast viability after 7 days (melanoblasts [2]; 100 μM): 97 ± 2%; melanoblast viability after 7 days (melanoblasts [2]; 300 μM): 96 ± 3%; epidermal progenitor viability after 7 days (epidermal progenitors; 30 μM): 98 ± 1%; epidermal progenitor viability after 7 days (epidermal progenitors; 1000 μM): 94 ± 3%; epidermal progenitor proliferation rate after 72 hours ([6]; 30 μM): 98 ± 1%; epidermal progenitor proliferation rate after 72 hours ([6]; 50 μM): 98 ± 1%; epidermal progenitor proliferation rate after 72 hours ([6]; 100 μM): 97 ± 1%; epidermal progenitor proliferation rate after 72 hours ([6]; 300 μM): 97 ± 1%; epidermal progenitor proliferation rate after 72 hours ([6]; 500 μM): 96 ± 2%; epidermal progenitor proliferation rate after 72 hours ([6]; 1000 μM): 96 ± 2%
6 | Oc1cc(O)cc(/C=C/c2ccc(O)cc2O)c1 [oxyresveratrol] | – | – | – | – | – | – | – | – | – | – | – | – | – | – | – | – | – | – | – | – | reduction of NK killing of K562 cells ([7]; 0.1 millimolar, E:T ratio 10:1): 88.7±1.8%; reduction of NK killing of K562 cells ([7]; 0.1 millimolar, E:T ratio 30:1): 72.8±1.9%; reduction of NK killing of K562 cells ([7]; 0.3 millimolar, E:T ratio 10:1): 86.1±0.9%; reduction of NK killing of K562 cells ([7]; 0.3 millimolar, E:T ratio 30:1): 64.0±3.4%; reduction of PHA-stimulated PBMC proliferation (PHA-stimulated PBMC [8]; 0.1 millimolar): 35.3±1.8%; reduction of PHA-stimulated PBMC proliferation (PHA-stimulated PBMC [8]; 0.3 millimolar): progressively less inhibition; reduction of PHA-stimulated PBMC proliferation (PHA-stimulated PBMC [8]; 1 millimolar): progressively less inhibition; reduction of PHA-stimulated PBMC proliferation (PHA-stimulated PBMC [8]; 3 millimolar): 14.7±3.4%; reduction in proliferation ([6]; 1 millimolar (1000 micromolar), 72 hours, epidermal progenitors): 12±2%
